The source of these data is article PMC5218480 (PLoS ONE, 2017).

This test relates to MV-4-11 cells. Kind of test: Gene expression microarray analysis (Affymetrix PrimeView) and GSEA. Type of test: cell-based, human. Conditions: MV-4-11 cells, 48 hours. Further details: RFU PODN (11730768_x_at) / Fold change /veh PODN (11730768_x_at) / RFU LINC00158 (11744669_a_at) / Fold change /veh LINC00158 (11744669_a_at) / RFU DUSP10 (11751237_a_at) / Fold change /veh DUSP10 (11751237_a_at) / RFU ID3 (11757404_x_at) / Fold change /veh ID3 (11757404_x_at) / RFU PLEKHG5 (11737974_s_at) / Fold change /veh PLEKHG5 (11737974_s_at) / RFU LRRC4B (11730491_at) / Fold change /veh LRRC4B (11730491_at) / RFU GIMAP4 (11747438_a_at) / Fold change /veh GIMAP4 (11747438_a_at) / RFU KRT8 (11758183_x_at) / Fold change /veh KRT8 (11758183_x_at) / RFU CNN1 (11734310_a_at) / Fold change /veh CNN1 (11734310_a_at) / RFU VPS37D (11726825_at) / Fold change /veh VPS37D (11726825_at) / RFU C10orf10 (11716522_x_at) / Fold change /veh C10orf10 (11716522_x_at) / RFU KIR2DL2 /// KIR2DL4 /// KIR2DL5A /// KIR2DL5B /// KIR2DS1 /// KIR2DS2 /// KIR2DS3 /// KIR2DS4 /// KIR3DL3 /// KIR3DL3 /// KIR3DS1 (11738374_at) / Fold change /veh KIR2DL2 /// KIR2DL4 /// KIR2DL5A /// KIR2DL5B /// KIR2DS1 /// KIR2DS2 /// KIR2DS3 /// KIR2DS4 /// KIR3DL3 /// KIR3DL3 /// KIR3DS1 (11738374_at) / RFU C1QL1 (11718748_at) / Fold change /veh C1QL1 (11718748_at) / RFU TMPRSS4 (11747572_a_at) / Fold change /veh TMPRSS4 (11747572_a_at) / RFU HAMP (11756126_x_at) / Fold change /veh HAMP (11756126_x_at) / RFU RNFT2 (11725882_a_at) / Fold change /veh RNFT2 (11725882_a_at) / RFU NR4A2 (11747474_a_at) / Fold change /veh NR4A2 (11747474_a_at) / RFU ABCC12 (11746883_a_at) / Fold change /veh ABCC12 (11746883_a_at) / RFU TMEM136 (11760407_x_at) / Fold change /veh TMEM136 (11760407_x_at) / RFU CLDN22 /// WWC2 (11732394_at) / Fold change /veh CLDN22 /// WWC2 (11732394_at) / RFU HLA-DPB1 (11760878_x_at) / Fold change /veh HLA-DPB1 (11760878_x_at) / RFU SPINT1 (11716480_a_at) / Fold change /veh SPINT1 (11716480_a_at) / RFU GAP43 (11754022_s_at) / Fold change /veh GAP43 (11754022_s_at) / RFU A4GNT (11735810_at) / Fold change /veh A4GNT (11735810_at) / RFU PRB3 (11715151_x_at) / Fold change /veh PRB3 (11715151_x_at) / RFU TUBB4B (11761932_at) / Fold change /veh TUBB4B (11761932_at) / RFU CAPN14 (11732068_a_at) / Fold change /veh CAPN14 (11732068_a_at) / RFU TMCC2 (11721928_a_at) / Fold change /veh TMCC2 (11721928_a_at) / RFU IRGQ (11745062_a_at) / Fold change /veh IRGQ (11745062_a_at) / RFU FAM174B (11720279_a_at) / Fold change /veh FAM174B (11720279_a_at) / RFU TMPRSS4 (11748680_a_at) / Fold change /veh TMPRSS4 (11748680_a_at) / RFU FAM212B (11763350_a_at) / Fold change /veh FAM212B (11763350_a_at) / RFU PLEKHG5 (11743358_a_at) / Fold change /veh PLEKHG5 (11743358_a_at) / RFU ZSCAN30 (11745921_a_at) / Fold change /veh ZSCAN30 (11745921_a_at) / RFU CMKLR1 (11741424_a_at) / Fold change /veh CMKLR1 (11741424_a_at) / RFU LOC101060620 /// MAPK8IP1 (11723275_at) / Fold change /veh LOC101060620 /// MAPK8IP1 (11723275_at) / RFU SPTSSB (11747773_x_at) / Fold change /veh SPTSSB (11747773_x_at) / RFU PRSS12 (11739890_at) / Fold change /veh PRSS12 (11739890_at) / RFU BIN1 (11741810_x_at) / Fold change /veh BIN1 (11741810_x_at) / RFU WNT11 (11732464_a_at) / Fold change /veh WNT11 (11732464_a_at) / RFU C10orf10 (11716521_a_at) / Fold change /veh C10orf10 (11716521_a_at) / RFU C5orf56 (11738089_at) / Fold change /veh C5orf56 (11738089_at) / RFU CYB561 (11721691_x_at) / Fold change /veh CYB561 (11721691_x_at) / RFU ANKRD19P (11752326_a_at) / Fold change /veh ANKRD19P (11752326_a_at) / RFU OR2T12 /// OR2T33 /// OR2T8 (11738714_s_at) / Fold change /veh OR2T12 /// OR2T33 /// OR2T8 (11738714_s_at) / RFU VCAN (11748164_a_at) / Fold change /veh VCAN (11748164_a_at) / RFU JSRP1 (11732532_at) / Fold change /veh JSRP1 (11732532_at) / RFU KRTAP10-11 (11738290_x_at) / Fold change /veh KRTAP10-11 (11738290_x_at) / RFU MYO3A (11730013_a_at) / Fold change /veh MYO3A (11730013_a_at) / RFU EBF3 (11725865_a_at) / Fold change /veh EBF3 (11725865_a_at) / RFU CAMK2N1 (11719241_x_at) / Fold change /veh CAMK2N1 (11719241_x_at) / RFU C5orf56 (11738088_a_at) / Fold change /veh C5orf56 (11738088_a_at) / RFU OLFML3 (11715873_a_at) / Fold change /veh OLFML3 (11715873_a_at) / RFU LOC100653217 /// NTM (11731650_a_at) / Fold change /veh LOC100653217 /// NTM (11731650_a_at) / RFU MAPK11 (11762145_a_at) / Fold change /veh MAPK11 (11762145_a_at) / RFU FIZ1 (11724087_x_at) / Fold change /veh FIZ1 (11724087_x_at) / RFU OASL (11726364_x_at) / Fold change /veh OASL (11726364_x_at) / RFU SOX15 (11748057_x_at) / Fold change /veh SOX15 (11748057_x_at) / RFU CD79A (11719716_a_at) / Fold change /veh CD79A (11719716_a_at) / RFU HIST1H1D (11736915_at) / Fold change /veh HIST1H1D (11736915_at) / RFU CASKIN2 (11723855_a_at) / Fold change /veh CASKIN2 (11723855_a_at) / RFU LOC730098 (11760151_x_at) / Fold change /veh LOC730098 (11760151_x_at) / RFU OR4N2 (11742367_at) / Fold change /veh OR4N2 (11742367_at) / RFU PRRT2 (11749266_a_at) / Fold change /veh PRRT2 (11749266_a_at) / RFU SNX32 (11753110_a_at) / Fold change /veh SNX32 (11753110_a_at) / RFU CDHR5 (11726645_a_at) / Fold change /veh CDHR5 (11726645_a_at) / RFU RCAN1 (11760418_a_at) / Fold change /veh RCAN1 (11760418_a_at) / RFU FAM167A (11723789_a_at) / Fold change /veh FAM167A (11723789_a_at) / RFU FAM26E (11764081_at) / Fold change /veh FAM26E (11764081_at) / RFU ISYNA1 (11749810_s_at) / Fold change /veh ISYNA1 (11749810_s_at) / RFU ACY1 (11761880_at) / Fold change /veh ACY1 (11761880_at) / RFU 11764098_at / Fold change /veh 11764098_at / RFU SAMD14 (11745864_x_at) / Fold change /veh SAMD14 (11745864_x_at) / RFU NPB (11741838_a_at) / Fold change /veh NPB (11741838_a_at) / RFU TMPRSS6 (11731388_a_at) / Fold change /veh TMPRSS6 (11731388_a_at) / RFU KRTAP10-2 (11738614_at) / Fold change /veh KRTAP10-2 (11738614_at) / RFU ARHGAP8 /// PRR5-ARHGAP8 (11727945_x_at) / Fold change /veh ARHGAP8 /// PRR5-ARHGAP8 (11727945_x_at) / RFU KRTAP5-7 /// NADSYN1 (11734609_at) / Fold change /veh KRTAP5-7 /// NADSYN1 (11734609_at) / RFU RASL12 (11751679_a_at) / Fold change /veh RASL12 (11751679_a_at) / RFU CDKN2B (11736163_a_at) / Fold change /veh CDKN2B (11736163_a_at) / RFU PRF1 (11729649_at) / Fold change /veh PRF1 (11729649_at) / RFU, ZNF638 /// ZNF638-IT1 / Fold change vs veh, ZNF638 /// ZNF638-IT1 / RFU, PANK3 / Fold change vs veh, PANK3 / RFU, SH3YL1 / Fold change vs veh, SH3YL1 / RFU, ZEB2 / Fold change vs veh, ZEB2 / RFU, NRIP1 / Fold change vs veh, NRIP1 / RFU, PTTG1IP / Fold change vs veh, PTTG1IP / RFU, CAPN2 / Fold change vs veh, CAPN2 / RFU, MED14 / Fold change vs veh, MED14 / RFU, SNORA58 / Fold change vs veh, SNORA58 / RFU, C1orf63 / Fold change vs veh, C1orf63 / RFU, LRRFIP1 / Fold change vs veh, LRRFIP1 / RFU, NDUFAF7 / Fold change vs veh, NDUFAF7 / RFU, SLC12A2 / Fold change vs veh, SLC12A2 / RFU, IBTK / Fold change vs veh, IBTK / RFU, ESF1 / Fold change vs veh, ESF1 / Fold change vs veh, TMEM50B / RFU, TAOK1 / Fold change vs veh, TAOK1 / RFU, ACBD3 / Fold change vs veh, ACBD3 / RFU, TMA16 / Fold change vs veh, TMA16 / RFU, RWDD3 / Fold change vs veh, RWDD3 / RFU, BCAT1 / Fold change vs veh, BCAT1 / RFU, EDEM3 / Fold change vs veh, EDEM3 / RFU, TMEM33 / Fold change vs veh, TMEM33 / RFU, WDR75 / Fold change vs veh, WDR75 / RFU, AHCTF1 / Fold change vs veh, AHCTF1 / RFU, TFRC / Fold change vs veh, TFRC / RFU, ZDHHC17 / Fold change vs veh, ZDHHC17 / RFU, NOM1 / Fold change vs veh, NOM1 / RFU, ARL8B / Fold change vs veh, ARL8B / RFU, ZBTB11 / Fold change vs veh, ZBTB11 / RFU, TAMM41 / Fold change vs veh, TAMM41 / RFU, KIAA1704 /// LOC100996395 / Fold change vs veh, KIAA1704 /// LOC100996395 / RFU, ING1 / Fold change vs veh, ING1 / RFU, TRMT61B / Fold change vs veh, TRMT61B / RFU, FUBP3 / Fold change vs veh, FUBP3 / RFU, TP53 / Fold change vs veh, TP53 / RFU, TNKS2 / Fold change vs veh, TNKS2 / RFU, ZFP14 / Fold change vs veh, ZFP14 / RFU, ACTR2 / Fold change vs veh, ACTR2 / RFU, PPP3R1 / Fold change vs veh, PPP3R1 / RFU, PIK3R1 / Fold change vs veh, PIK3R1 / RFU, HNRNPA1 / Fold change vs veh, HNRNPA1 / RFU, RNF170 / Fold change vs veh, RNF170 / RFU, ZNF28 / Fold change vs veh, ZNF28 / RFU, RNGTT / Fold change vs veh, RNGTT / RFU, OGT / Fold change vs veh, OGT / RFU, BRD1 / Fold change vs veh, BRD1 / RFU, MARS / Fold change vs veh, MARS / RFU, ZNF655 / Fold change vs veh, ZNF655 / RFU, FAHD1 / Fold change vs veh, FAHD1 / RFU, BDP1 / Fold change vs veh, BDP1 / RFU, LRRCC1 / Fold change vs veh, LRRCC1 / RFU, ARID1A / Fold change vs veh, ARID1A / RFU, ZNF146 / Fold change vs veh, ZNF146 / RFU, ZNF330 / Fold change vs veh, ZNF330 / RFU, GPN3 / Fold change vs veh, GPN3 / RFU, C9orf123 / Fold change vs veh, C9orf123 / RFU, N4BP2L2 / Fold change vs veh, N4BP2L2 / RFU, ARFIP1 / Fold change vs veh, ARFIP1 / RFU, FAM179B / Fold change vs veh, FAM179B / RFU, BCL10 / Fold change vs veh, BCL10 / RFU, UHRF1BP1L / Fold change vs veh, UHRF1BP1L / RFU, BET1 / Fold change vs veh, BET1 / RFU, CNOT2 / Fold change vs veh, CNOT2 / RFU, ZNF268 / Fold change vs veh, ZNF268 / Fold change vs veh, ZNF507 / RFU, DGCR2 / Fold change vs veh, DGCR2 / RFU, WDSUB1 / Fold change vs veh, WDSUB1 / Fold change vs veh, HSP90B1 /// MIR3652 / RFU, ADSS / Fold change vs veh, ADSS / RFU, GK / Fold change vs veh, GK / RFU, ZNF148 / Fold change vs veh, ZNF148 / RFU, TAF9 / Fold change vs veh, TAF9 / RFU, SLC1A5 / Fold change vs veh, SLC1A5 / RFU, SLMO2 / Fold change vs veh, SLMO2 / RFU, ABCC4 / Fold change vs veh, ABCC4 / RFU, LOC101060439 /// RAP1B / Fold change vs veh, LOC101060439 /// RAP1B / RFU, RFX7 / Fold change vs veh, RFX7 / RFU, GTPBP10 / Fold change vs veh, GTPBP10 / RFU, CNEP1R1 / Fold change vs veh, CNEP1R1 / RFU, BIVM-ERCC5 /// ERCC5 / Fold change vs veh, BIVM-ERCC5 /// ERCC5 / RFU, ILF3 / Fold change vs veh, ILF3 / RFU 11762660_at / Fold change /veh 11762660_at / RFU VCAN (11757783_s_at) / Fold change /veh VCAN (11757783_s_at) / RFU DDX43 (11728927_at) / Fold change /veh DDX43 (11728927_at) / RFU KRT8 (11758188_x_at) / Fold change /veh KRT8 (11758188_x_at) / RFU NKD1 (11759106_at) / Fold change /veh NKD1 (11759106_at) / RFU SRD5A1 (11742802_a_at) / Fold change /veh SRD5A1 (11742802_a_at) / RFU TPSAB1 /// TPSB2 (11721975_s_at) / Fold change /veh TPSAB1 /// TPSB2 (11721975_s_at) / RFU GSTM3 (11746129_a_at) / Fold change /veh GSTM3 (11746129_a_at) / RFU IL23R (11737362_x_at) / Fold change /veh IL23R (11737362_x_at) / RFU TMEM51 (11727254_a_at) / Fold change /veh TMEM51 (11727254_a_at) / RFU PIWIL2 (11732686_x_at) / Fold change /veh PIWIL2 (11732686_x_at) / RFU ORM1 (11744905_x_at) / Fold change /veh ORM1 (11744905_x_at) / RFU CCDC152 (11743942_at) / Fold change /veh CCDC152 (11743942_at) / RFU ECM1 (11717891_a_at) / Fold change /veh ECM1 (11717891_a_at) / RFU IL23R (11748794_a_at) / Fold change /veh IL23R (11748794_a_at) / RFU TNFAIP8L3 (11732012_x_at) / Fold change /veh TNFAIP8L3 (11732012_x_at) / RFU MBOAT4 (11741988_at) / Fold change /veh MBOAT4 (11741988_at) / RFU 11764193_at / Fold change /veh 11764193_at / RFU TMEM53 (11763286_at) / Fold change /veh TMEM53 (11763286_at) / RFU MAGEB2 (11727129_at) / Fold change /veh MAGEB2 (11727129_at) / RFU TMEM200A (11744735_a_at) / Fold change /veh TMEM200A (11744735_a_at) / RFU CCDC152 (11751479_a_at) / Fold change /veh CCDC152 (11751479_a_at) / RFU FAM211A (11726209_a_at) / Fold change /veh FAM211A (11726209_a_at) / RFU RGS16 (11746705_a_at) / Fold change /veh RGS16 (11746705_a_at) / RFU VCAN (11755009_s_at) / Fold change /veh VCAN (11755009_s_at) / RFU RHOB (11743442_s_at) / Fold change /veh RHOB (11743442_s_at) / RFU RGS16 (11720943_a_at) / Fold change /veh RGS16 (11720943_a_at) / RFU RGS16 (11720944_at) / Fold change /veh RGS16 (11720944_at) / RFU, VPS4B / Fold change vs veh, VPS4B / RFU, CREB1 / Fold change vs veh, CREB1 / RFU, DNAJC13 / Fold change vs veh, DNAJC13 / RFU, GNAQ / Fold change vs veh, GNAQ / RFU, CDK5R1 / Fold change vs veh, CDK5R1 / RFU, ZRANB3 / Fold change vs veh, ZRANB3 / RFU, CUL4A / Fold change vs veh, CUL4A / RFU, CCNY / Fold change vs veh, CCNY / RFU, UFL1 / Fold change vs veh, UFL1 / RFU, COG3 / Fold change vs veh, COG3 / RFU, DIAPH2 / Fold change vs veh, DIAPH2 / RFU, SKA2 / Fold change vs veh, SKA2 / RFU, AFF3 / Fold change vs veh, AFF3 / RFU, LMF1 / Fold change vs veh, LMF1 / RFU, IPO11 / Fold change vs veh, IPO11 / RFU, DFFB / Fold change vs veh, DFFB / RFU, FOXP1 / Fold change vs veh, FOXP1 / RFU, CARD8 / Fold change vs veh, CARD8 / RFU, STRN3 / Fold change vs veh, STRN3 / RFU, ADK / Fold change vs veh, ADK / RFU, RASSF2 / Fold change vs veh, RASSF2 / RFU, WIPF1 / Fold change vs veh, WIPF1 / RFU, LARP1B / Fold change vs veh, LARP1B / RFU, RASA1 / Fold change vs veh, RASA1 / RFU, RB1 / Fold change vs veh, RB1 / RFU, PPFIA1 / Fold change vs veh, PPFIA1 / RFU, MAT2A / Fold change vs veh, MAT2A / RFU, CCT5 / Fold change vs veh, CCT5 / RFU, WDR92 / Fold change vs veh, WDR92 / RFU, CUX1 / Fold change vs veh, CUX1 / RFU, TTC7A / Fold change vs veh, TTC7A / RFU, TMEM135 / Fold change vs veh, TMEM135 / RFU, DEPTOR / Fold change vs veh, DEPTOR / RFU, CPM / Fold change vs veh, CPM / RFU, DNAJB6 / Fold change vs veh, DNAJB6 / RFU, CACNA2D3 / Fold change vs veh, CACNA2D3 / RFU, DTX4 / Fold change vs veh, DTX4 / RFU, TFCP2 / Fold change vs veh, TFCP2 / RFU, GMCL1 /// GMCL1P1 / Fold change vs veh, GMCL1 /// GMCL1P1 / RFU, AEBP2 / Fold change vs veh, AEBP2 / RFU, SNHG1 /// SNORD22 /// SNORD25 /// SNORD26 /// SNORD27 /// SNORD28 /// SNORD29 /// SNORD31 / Fold change vs veh, SNHG1 /// SNORD22 /// SNORD25 /// SNORD26 /// SNORD27 /// SNORD28 /// SNORD29 /// SNORD31 / Fold change (Aza/veh), C12orf56 (ProbeSet 11735607_a_at) / Fold change (ACY-1035/veh), C12orf56 (ProbeSet 11735607_a_at) / Fold change (Aza/veh), FGFR1OP (ProbeSet 11751329_s_at) / Fold change (ACY-1035/veh), FGFR1OP (ProbeSet 11751329_s_at) / Fold change (Aza/veh), VPS36 (ProbeSet 11739960_a_at) / Fold change (ACY-1035/veh), VPS36 (ProbeSet 11739960_a_at) / RFU SYPL1 (11715823_x_at) / Fold change /veh SYPL1 (11715823_x_at) / RFU IGFBP7 (11715501_s_at) / Fold change /veh IGFBP7 (11715501_s_at) / RFU REEP3 (11722064_at) / Fold change /veh REEP3 (11722064_at) / RFU IGLL1 (11728026_x_at) / Fold change /veh IGLL1 (11728026_x_at): dose or concentration left out as unconfirmed.

Structures are written as SMILES.

Turning to `Nc1ncn([C@@H]2O[C@H](CO)[C@@H](O)[C@H]2O)c(=O)n1` [azacitidine], the “Fold change /veh KRTAP10-11 (11738290_x_at)” value was 1.14.
